Data reported in patent US8969325B2, “TRPV1 antagonists” (AbbVie Inc., priority 2011, dated 2015).

Tests used:
human TRPV1 [1] = biological target: T1, human TRPV1 (Homo sapiens (Human), UniProt Q8NER1); assay: Acid Activation Assay (pH 5.0, intracellular Ca2+, FLIPR); assay type: cell-based; settings: percentage of the maximal pH 5.0-induced response remaining; recombinant HEK293 hTRPV1 cells; maximum concentration tested 37.5 μM
Description: Dulbecco's modified Eagle's medium (DMEM) with 4.5 m g/mL D-glucose, fetal bovine serum, L-glutamine, and 2-morpholinoethanesulfonic acid (MES) were purchased from Sigma-Aldrich Co. (St. Louis, Mo.). Dulbecco's phosphate-buffered saline (DPBS) with Ca^2+, Mg^2+, and 1 mg/mL D-glucose (pH 7.4), Geneticin®, 0.25% trypsin-1 mM EDTA, and penicillin-streptomycin were purchased from Invitrogen Corp. (Carlsbad, Calif.). The FLIPR® Calcium 4 assay kit was purchased from Molecular Devices (Sunnyvale, Calif.).
The cDNA for human TRPV1 (hTRPV1) was isolated by reverse transcriptase-polymerase chain reaction (RT-PCR) from human small intestine poly A+ RNA supplied by Clontech (Palo Alto, Calif.) using primers designed surrounding the initiation and termination codons identical to the published sequences (Hayes et al. Pain 2000, 88, 205-215). The resulting cDNA PCR products were subcloned into pCIneo mammalian expression vector (Promega) and fully sequenced using fluorescent dye-terminator reagents (Prism, PerkinElmer Applied Biosystems Division) and a PerkinElmer Applied Biosystems Model 373 DNA sequencer or Model 310 genetic analyzer. Expression plasmids encoding the hTRPV1 cDNA were transfected into HEK293 cells using Lipofectamine®. Forty-eight hours after transfection, the neomycin-resistant cells were selected with growth medium containing 800 μg/mL Geneticin (Life Technologies, formerly Gibco BRL). Surviving individual colonies were isolated and screened for TRPV1 activity. Cells expressing recombinant TRPV1 were maintained at 37° C. in DMEM containing 4 mM L-glutamine, 300 μg/mL G418 (Calbiochem) and 10% fetal bovine serum under a humidified 5% CO2 atmosphere.
The functional activity of compounds at the TRPV1 receptor was determined by measurement of intracellular Ca^2+ levels ([Ca^2+]i) using the Fluorescence Imaging Plate Reader (FLIPR)TETRA®. All compounds were tested over a 12-point one-half-log concentration range with 37.5 μM being the maximum concentration tested. Compound stocks, 10 mM, were prepared in DMSO, and diluted serially across a 384-well plate using a Bravo BenchCel workstation (Agilent Technologies, Santa Clara, Calif.). On the day prior to the experiment, the recombinant HEK293 cells expressing human TRPV1 (hTRPV1) were removed from tissue culture flasks and plated in growth medium into black-walled clear-bottom 384-well Biocoat™ poly-D-lysine assay plates (BD Biosciences, Bedford, Mass.) using a Multidrop® dispenser (ThermoScientific, Waltham, Mass.). On the day of the experiment growth medium was removed, and the no-wash FLIPR® Calcium-4 dye (λEX=470-495 nm, λEM=515-575 nm) was added to each well using the Multidrop® dispenser. The plated cells were incubated for 90-120 min in the dark at 25° C. The test compounds dissolved in DMSO were then added to the plates using an Agilent Bravo workstation (Agilent Technologies Inc., Santa Clara, Calif.). Three minutes later, a pH 5.0 solution was added to each well. Reagents were delivered at a rate of 40 μL/sec, and the final assay volume was 80 μL. Acidic pH solutions were prepared by titration of DPBS/MES with 1 N HCl. The intensity of the fluorescence was captured and digitally transferred to an interfaced PC. The maximum peak measured for the concentration range tested was used to calculate the corresponding peak increase in fluorescence over baseline (relative fluorescence units) which was expressed as the percentage (max % remain) of the maximal pH 5.0-induced response.
Table 1 reports the percentage (max % remain) of the maximal pH 5.0-induced response measured for the compounds tested in the recombinant HEK293 cell assay. Most of the compounds tested inhibited calcium flux only partially following TRPV1 activation by the pH 5.0 solution.

human TRPV1 [2] = biological target: T1, human TRPV1; assay: Capsaicin Activation Assay (intracellular Ca2+, FLIPR); assay type: cell-based; settings: recombinant HEK293 cells expressing hTRPV1, 50 nM capsaicin
Description: (Logan, Utah). Dulbecco's phosphate-buffered saline (D-PBS) (with 1 mg/mL glucose and 3.6 mg/l Na pyruvate, without phenol red), L-glutamine, hygromycin B, and Lipofectamine® were obtained from Life Technologies (Grand Island, N.Y.). G418 sulfate was obtained from Calbiochem-Novabiochem Corp. (San Diego, Calif.). […] (St. Louis, Mo.). […] The cDNA for human TRPV1 (hTRPV1) was isolated by reverse transcriptase-polymerase chain reaction (RT-PCR) from human small intestine poly A+ RNA supplied by Clontech (Palo Alto, Calif.) using primers designed surrounding the initiation and termination codons identical to the published sequences (Hayes et al. […] The resulting cDNA PCR products were subcloned into pCIneo mammalian expression vector (Promega) and fully sequenced using fluorescent dye-terminator reagents (Prism, PerkinElmer Applied Biosystems Division) and a PerkinElmer Applied Biosystems Model 373 DNA sequencer or Model 310 genetic analyzer. Expression plasmids encoding the hTRPV1 cDNA were transfected into HEK293 cells using Lipofectamine®. Forty-eight hours after transfection, the neomycin-resistant cells were selected with growth medium containing 800 μg/mL Geneticin (Life Technologies, formerly Gibco BRL). Surviving individual colonies were isolated and screened for TRPV1 activity. […] Compound stocks, 10 mM, were prepared in DMSO, and diluted serially across a 384-well plate using a Bravo BenchCel workstation (Agilent Technologies, Santa Clara, Calif.). […] On the day prior to the experiment, the recombinant HEK293 cells expressing human TRPV1 (hTRPV1) were removed from tissue culture flasks and plated in growth medium into black-walled clear-bottom 384-well Biocoat™ poly-D-lysine assay plates (BD Biosciences, Bedford, Mass.) using a Multidrop® dispenser (ThermoScientific, Waltham, Mass.). […] Molecular Devices, Sunnyvale, Calif.) was added to each well using the Multidrop® dispenser. […] Fluorescence readings were made at 1 to 5 second intervals over the course of the experimental run.

T1 sequence (Q8NER1 whole entry): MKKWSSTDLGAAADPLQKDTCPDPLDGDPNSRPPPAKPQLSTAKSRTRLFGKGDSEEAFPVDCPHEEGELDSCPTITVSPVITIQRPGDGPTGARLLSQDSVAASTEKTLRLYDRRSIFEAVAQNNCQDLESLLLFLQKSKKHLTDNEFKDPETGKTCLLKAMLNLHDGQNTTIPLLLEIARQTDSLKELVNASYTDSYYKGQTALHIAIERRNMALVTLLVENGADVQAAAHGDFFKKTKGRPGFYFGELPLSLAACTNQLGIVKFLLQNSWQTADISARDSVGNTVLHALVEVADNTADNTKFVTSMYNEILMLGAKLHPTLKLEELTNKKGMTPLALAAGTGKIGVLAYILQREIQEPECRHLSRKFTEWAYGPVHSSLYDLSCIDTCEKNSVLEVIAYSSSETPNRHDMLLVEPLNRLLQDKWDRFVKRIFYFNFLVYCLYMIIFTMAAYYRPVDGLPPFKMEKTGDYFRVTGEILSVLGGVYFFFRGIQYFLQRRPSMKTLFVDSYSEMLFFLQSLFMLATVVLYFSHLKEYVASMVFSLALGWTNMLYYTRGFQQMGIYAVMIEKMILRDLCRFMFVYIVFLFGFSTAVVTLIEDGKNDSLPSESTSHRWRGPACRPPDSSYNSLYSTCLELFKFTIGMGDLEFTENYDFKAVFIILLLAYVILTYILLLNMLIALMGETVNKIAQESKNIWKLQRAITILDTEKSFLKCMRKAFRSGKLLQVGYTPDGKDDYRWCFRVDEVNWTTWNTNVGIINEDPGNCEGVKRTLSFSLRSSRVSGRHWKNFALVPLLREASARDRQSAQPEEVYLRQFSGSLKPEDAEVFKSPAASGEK

Row | human TRPV1 H^+ (max % remain) (human TRPV1 [1]) [%] | IC50 (human TRPV1 [2]) [µM] | SMILES
1 | 62 | 4.1 | CN1Cc2ccc(NC(=O)N[C@@H]3CCOc4ccccc43)cc2NC1=O [Example 175, 1-[(4R)-3,4-dihydro-2H-chromen-4-yl]-3-(3-methyl-2-oxo-1,2,3,4-tetrahydroquinazolin-7-yl)urea]
2 | 44 | 0.037 | CCC1(CC)C[C@@H](NC(=O)Nc2ccc3c(c2)NC(=O)CC3)c2ccccc2O1 [Example 223, 1-[(4R)-2,2-diethyl-3,4-dihydro-2H-chromen-4-yl]-3-(2-oxo-1,2,3,4-tetrahydroquinolin-7-yl)urea]
3 | 28 | 0.11 | C[C@]1(C(F)F)C[C@@H](NC(=O)Nc2ccc3c(c2)NC(=O)CC3)c2ccccc2O1 [Example 249, 1-[(2R,4R)-2-(difluoromethyl)-2-methyl-3,4-dihydro-2H-chromen-4-yl]-3-(2-oxo-1,2,3,4-tetrahydroquinolin-7-yl)urea]
4 | 49 | 0.28 | CN1Cc2ccc(NC(=O)N[C@@H]3CCOc4cc(OC(F)(F)F)ccc43)cc2NC1=O [Example 195, 1-(3-methyl-2-oxo-1,2,3,4-tetrahydroquinazolin-7-yl)-3-[(4R)-7-(trifluoromethoxy)-3,4-dihydro-2H-chromen-4-yl]urea]
5 | 26 | 0.023 | CN1C(=O)NCc2c(NC(=O)N[C@@H]3CC(C)(C(F)F)Oc4cc(Cl)ccc43)cccc21 (stereo partly drawn) [Example 136, 1-[(4R)-7-chloro-2-(difluoromethyl)-2-methyl-3,4-dihydro-2H-chromen-4-yl]-3-(1-methyl-2-oxo-1,2,3,4-tetrahydroquinazolin-5-yl)urea]
6 | 8 | 0.094 | CC1(C)C[C@@H](NC(=O)Nc2ccc3c(c2)NC(=O)N(CCO)C3)c2ccc(F)cc2O1 [Example 43, 1-[(4R)-7-fluoro-2,2-dimethyl-3,4-dihydro-2H-chromen-4-yl]-3-[3-(2-hydroxyethyl)-2-oxo-1,2,3,4-tetrahydroquinazolin-7-yl]urea]
7 | 70 | 0.22 | CCC1(CC)C[C@@H](NC(=O)Nc2ccc3c(c2)N(C)C(=O)CC3)c2ccc(C(F)(F)F)cc2O1 [Example 261, 1-[(4R)-2,2-diethyl-7-(trifluoromethyl)-3,4-dihydro-2H-chromen-4-yl]-3-(1-methyl-2-oxo-1,2,3,4-tetrahydroquinolin-7-yl)urea]
8 | 67 | 0.13 | CN1C(=O)CCc2ccc(NC(=O)N[C@@H]3CC(C)(C)Oc4cc(Br)ccc43)cc21 [Example 297, 1-[(4R)-7-bromo-2,2-dimethyl-3,4-dihydro-2H-chromen-4-yl]-3-(1-methyl-2-oxo-1,2,3,4-tetrahydroquinolin-7-yl)urea]
9 | 54 | 0.063 | Cn1c(=O)ccc2c(NC(=O)N[C@@H]3CC(CF)(CF)Oc4c(F)cccc43)cccc21 [Example 95, 1-[(4R)-8-fluoro-2,2-bis(fluoromethyl)-3,4-dihydro-2H-chromen-4-yl]-3-(1-methyl-2-oxo-1,2-dihydroquinolin-5-yl)urea]
10 | 19 | 0.45 | CCC1(CC)C[C@@H](NC(=O)Nc2ccc3c(c2)NC(=O)N(C)C3)c2ccc(OC(F)(F)F)cc2O1 [Example 191, 1-[(4R)-2,2-diethyl-7-(trifluoromethoxy)-3,4-dihydro-2H-chromen-4-yl]-3-(3-methyl-2-oxo-1,2,3,4-tetrahydroquinazolin-7-yl)urea]
11 | 55 | 0.076 | O=C1CCc2ccc(NC(=O)N[C@@H]3CC(CF)(CF)Oc4c3ccc(Cl)c4F)cc2N1 [Example 231, 1-[(4R)-7-chloro-8-fluoro-2,2-bis(fluoromethyl)-3,4-dihydro-2H-chromen-4-yl]-3-(2-oxo-1,2,3,4-tetrahydroquinolin-7-yl)urea]
12 | 37 | 0.19 | CN1Cc2ccc(NC(=O)N[C@@H]3CCc4cc(C(C)(C)C)ccc43)cc2NC1=O [Example 179, 1-[(1R)-5-tert-butyl-2,3-dihydro-1H-inden-1-yl]-3-(3-methyl-2-oxo-1,2,3,4-tetrahydroquinazolin-7-yl)urea]
13 | 40 | 0.2 | CCC1(CC)C[C@@H](NC(=O)Nc2ccc3c(c2)NC(=O)N(C)C3)c2cc(F)ccc2O1 [Example 189, 1-[(4R)-2,2-diethyl-6-fluoro-3,4-dihydro-2H-chromen-4-yl]-3-(3-methyl-2-oxo-1,2,3,4-tetrahydroquinazolin-7-yl)urea]
14 | 107 | > 38 | O=C1COc2ccc(NC(=O)N[C@@H]3CCOc4cc(C(F)(F)F)ccc43)cc2N1 [Example 121, 1-(3-oxo-3,4-dihydro-2H-1,4-benzoxazin-6-yl)-3-[(4R)-7-(trifluoromethyl)-3,4-dihydro-2H-chromen-4-yl]urea]
15 | 40 | 0.18 | O=C1CCc2ccc(NC(=O)N[C@@H]3CC(CF)(CF)Oc4c(F)cc(F)cc43)cc2N1 [Example 214, 1-[(4R)-6,8-difluoro-2,2-bis(fluoromethyl)-3,4-dihydro-2H-chromen-4-yl]-3-(2-oxo-1,2,3,4-tetrahydroquinolin-7-yl)urea]
16 | 38 | 0.022 | Cn1c(=O)ccc2c(NC(=O)N[C@@H]3C[C@](C)(CF)Oc4cc(Cl)ccc43)cccc21 [Example 40, 1-[(2R,4R)-7-chloro-2-(fluoromethyl)-2-methyl-3,4-dihydro-2H-chromen-4-yl]-3-(1-methyl-2-oxo-1,2-dihydroquinolin-5-yl)urea]
17 | 26 | 0.047 | O=C1CCc2ccc(NC(=O)N[C@@H]3CCOc4cc(C(F)(F)F)ccc43)cc2N1 [Example 239, 1-(2-oxo-1,2,3,4-tetrahydroquinolin-7-yl)-3-[(4R)-7-(trifluoromethyl)-3,4-dihydro-2H-chromen-4-yl]urea]
18 | 55 | 0.21 | CN1C(=O)CCc2ccc(NC(=O)N[C@@H]3CC(CF)(CF)Oc4c3ccc(Cl)c4F)cc21 [Example 273, 1-[(4R)-7-chloro-8-fluoro-2,2-bis(fluoromethyl)-3,4-dihydro-2H-chromen-4-yl]-3-(1-methyl-2-oxo-1,2,3,4-tetrahydroquinolin-7-yl)urea]
